In article PMC8040252, “1,2,4-Oxadiazole-Bearing Pyrazoles as Metabolically Stable Modulators of Store-Operated Calcium Entry” (ACS Medicinal Chemistry Letters, 2021):
Marks after values point to notes of the source that are not given here.

How the values were obtained:
[1] = test system: Store-operated calcium entry (SOCE); test: SOCE in HEK cells, tBhQ store depletion and Ca2+ re-addition, Fura-2 calcium imaging; type: cell-based, human; settings: for percentage of SOCE activity: compared to control
Procedure: With this approach, 24 oxadiazole-bearing pyrazoles were synthesized and tested in human embryonic kidney (HEK) cells for SOCE inhibition. […] After 600 s, Ca^2+ was added and intracellular levels were measured in fluorescence microscopy with the calcium dye Fura-2. […] For these compounds, the cell viability was therefore evaluated. An MTT assay was performed and the compounds that affected cell viability by more than 25% at 10 μM were discarded (23, 31, and 33). […] According to both activity and cytotoxicity, for the selected five compounds, the representative traces are depicted in Figure 3.
Human embryonic kidney (Hek) cells were obtained from ATCC (Rockville, MD, USA) and were cultured in Dulbecco’s Modified Eagle’s Medium (DMEM; Sigma-Aldrich, Italy), supplemented with 10% heat-inactivated FBS (Gibco, Italy), L-glutamine […] (Sigma-Aldrich, Italy), 10 U/mL penicillin, and […] streptomycin (Sigma-Aldrich, Italy) at 37 °C, under a 5% CO2 humidified atmosphere. […]
(KRB, 135 mM NaCl, 5 mM KCl, 0.4 mM KH2PO4, 1 mM MgSO4, 5.5 mM glucose, 20mM HEPES, pH 7.4) containing 2 mM CaCl2 (30 min, room temperature). After which, cells were washed and incubated with KRB for other 30 min to allow de-esterification of […]. To measure SOCE, cells were depleted of calcium in the endoplasmic reticulum with 2,5-t-butylhydroquinone (tBhQ, 50 […]
For calcium imaging experiments, Hek cells were plated onto pre-treated poli-L-lysine (P4832, Sigma-Aldrich, Italy) glass coverslips of 24 mm in 6-well plates Cells were loaded with 5 µM of Fura-2 AM, 0.02% of Pluronic-127 (Life technologies, Italy) and 10 µM of sulfinpyrazone (Sigma-Aldrich, Italy) in KRB containing 2 mM CaCl2 for 30 min at RT. Cells were then washed once with KRB for 15 min for de-esterification of Fura-2 AM.
Coverslips were mounted into the acquisition chamber and placed on the stage of a Leica DMI6000 epifluorescent microscope equipped with S Fluor ×40/1.3 objective. Fura-2 AM was excited by alternate 340 and 380 nm using a Polychrome IV monochromator (Till Photonics, Germany), and the probe emission light was filtered through 520/20 bandpass filter and collected by a cooled CCD camera (Hamamatsu, Japan). The fluorescence signals were acquired and processed using MetaFluor software (Molecular Device, Sunnyvale, CA, USA). To quantify the differences in the amplitudes of Ca2+ transients, the ratio values were normalized using the formula ΔF/F0. […]
In calcium imaging experiments, data are presented as Mean +/- standard error (SEM) or Median and interquartile range (IQR). The normality of data distributions was assessed using the Shapiro−Wilk test. Nonparametric (Mann−Whitney U test and one-way) statistical analysis was used for comparisons of data. All statistical assessments were two-sided and a value of P <0.05 was considered statistically significant. Statistical analyses were performed using GraphPad Prism software (GraphPad Software, Inc., USA).

[2] = In vitro hepatic metabolic stability in MLS9 fraction with NADPH; type: in vitro ADME, mouse; settings: after 1 h of incubation
Procedure: The five selected inhibitors (22, 27, 29, 32, and 42) and the identified SOCE enhancer (37) were then evaluated for their in vitro hepatic metabolic stability. To this aim, the candidates were incubated in MLS9 fraction supplied with NADPH and the residual substrate was measured after 1 h. Under these conditions, the oxadiazole-bearing pyrazoles resulted overall metabolically stable, with only two compounds affording a residual substrate lower than 80% and the remaining molecules higher than 90% after incubation (Table 1 and Supporting Information). In contrast, Pyr3 and CIC-37, which suffered from hydrolysis of the ester function, provided a residual substrate of 43 and 74%, respectively (Table 1).[35] Similarly, the residual substrate of Synta66 in MLM is of 15%, due to an important hydrolysis of the amide group, absent in our class (Table 1).[39]
In vitro metabolism and purity of lead compounds
In vitro metabolism studies
Mouse liver S9 (MLS9) (pooled male mouse CD-1, protein concentration: 20 mg/mL) were purchased from Corning B.V. Life Sciences (Amsterdam, The Netherlands) and used throughout this study. The standard incubation mixture (250 μL final volume) was carried out in a 50 mM TRIS (tris[hydroxymethyl]-aminomethane) + 150 mM KCl buffer (pH 7.4) containing 3.3 mM MgCl2, 1.3 mM β-NADP-Na 2, 3.3 mM glucose 6-phosphate, 0.4 Units/mL glucose 6-phosphate dehydrogenase (NADPH regenerating system), 5 μL of acetonitrile ([…]), and the substrate compounds at a concentration of 50 µM. After pre-equilibration of the mixture, an appropriate volume of MLS9 suspension was added to give a final protein concentration of 1.5 mg/mL. The mixture was shaken for 60 min at 37 °C. Each incubation was stopped by addition of 250 μL of ice-cold acetonitrile, vortexed, and centrifuged at 13000 rpm for 10 min. Control incubations were carried out without the presence of MLS9 suspension or cofactors or in absence of the substrate.
LC-UV method for purity and metabolic stability data determination: a Shimadzu HPLC system (Shimadzu, Kyoto, Japan), consisting of two LC-10AD Vp module pumps, an SLC-10A Vp system controller, an SIL-10AD Vp autosampler, and a DGU-14-A on-line degasser were used for the analysis. The SPD-M10Avp photodiode array detector was used to detect the analytes. LC-Solution 1.24 software was used to process the chromatograms.
• Column: Phenomenex Kinetex XB C18, 150 × 4.6 mm (5 µm d.p.) protected with a SecurityGuard® (Torrance, CA, USA).
A: 0.2% formic acid in water;
B: 0.2% formic acid in acetonitrile.

[3] = test system: calcium entry in resting cells; test: Intracellular Ca2+ in resting cells in the presence of extracellular Ca2+; type: cell-based, human; settings: 10 μM, extracellular Ca2+ present, 300 s of observation, compared to control
Procedure: We also investigated whether 37 required the triggered opening of the Orai channel to elicit its effect. […] The same effect was also evident at 3 (118.2%) and 1 μM (116.7%) but was not detected at concentrations above 10. In particular, at 30 and 100 μM, 37 acts as weak SOCE inhibitor, with a percentage of residual activity of about 70%.

Which “percentage of SOCE activity” value ([1]; 1 μM) does the source give for `CCCCCC(=O)Nc1ccc(-n2ncc(-c3nc(C)no3)c2C(F)(F)F)cc1` [compound 37] here?
Its value is 116.7%.

What about the “percentage of SOCE activity” value ([1]; 3 μM) of the same compound?
Its value is 118.2%.

And the “area under the curve (AUC) of calcium entry” value ([1]; 10 μM, vs control)?
The value was “significantly increased”.

And the “peak amplitude of calcium entry” value ([1]; 10 μM, vs control)?
Its value is “significantly increased”.

And the “slope of the Ca2+-rise” value ([1]; 10 μM, vs control)?
The value was “without affecting”.

What about the activity at 30 µM ([1]; Homo sapiens, HEK293, 30 μM, read-out: percentage of residual activity (SOCE)) of the same compound?
The activity at 30 µM was roughly 70%.

And the activity at 100 µM ([1]; Homo sapiens, HEK293, 100 μM, read-out: percentage of residual activity (SOCE))?
The activity at 100 µM was roughly 70%.

What about the activity at 10 µM ([1]; Homo sapiens, HEK293, compound 10 μM, tBhQ 50 μM, vs control, mean ± SEM of three experiments, read-out: % SOCE residual activity (10 μM)) of the same compound?
Its activity at 10 µM is 146 ± 4.5%.

What about the “MLS9 stability (residual substrate)” value [2] of the same compound?
The value was 91% ^b.

What about the “calcium entry in resting cells” value [3] of the same compound?
The value was “did not elicit any significant calcium entry”.
